For 17 molecules, IC50 results are on record in patent US12358910B2, “Heteroaromatic compounds as Vanin inhibitors” (Boehringer Ingelheim International GmbH, priority 2018, dated 2025).

The target in assay [1] is T1, FLAG-tagged Vanin-1 (AA 22-493, T26I) (Homo sapiens, UniProt O95497, T26I).
T1 construct: FLAG-tagged Vanin-1 (AA 22-493, T26I, produced internally); FLAG; made in house
T1 sequence (O95497 22-493 T26I): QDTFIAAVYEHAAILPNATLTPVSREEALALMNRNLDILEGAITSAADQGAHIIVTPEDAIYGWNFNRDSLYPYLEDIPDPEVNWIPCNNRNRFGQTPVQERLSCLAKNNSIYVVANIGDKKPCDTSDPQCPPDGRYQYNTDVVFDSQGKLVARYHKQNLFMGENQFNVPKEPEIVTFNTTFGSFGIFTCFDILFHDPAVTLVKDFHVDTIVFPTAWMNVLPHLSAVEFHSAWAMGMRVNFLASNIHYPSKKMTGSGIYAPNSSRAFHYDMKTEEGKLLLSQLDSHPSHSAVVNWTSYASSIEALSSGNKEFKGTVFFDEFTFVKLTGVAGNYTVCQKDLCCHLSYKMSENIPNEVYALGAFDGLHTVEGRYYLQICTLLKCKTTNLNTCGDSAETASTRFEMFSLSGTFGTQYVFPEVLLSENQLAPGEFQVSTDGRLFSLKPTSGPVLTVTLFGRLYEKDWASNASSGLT
As to the kind of experiment: Vanin-1 enzymatic assay (pantothenic acid formation, RapidFire mass spectrometry). The assay is classed as biochemical. The note with it: 0.1 nM FLAG-tagged Vanin-1, 3 μM D-pantethine, room temperature; geometric mean in case of multiple measurements; read-out: VNN-1 IC50. Here is the method: Description of Biological Properties Vanin-1 Enzymatic Assay:
The test compounds are dissolved in 100% DMSO at a concentration of 10 mM and in a first step diluted in DMSO to a concentration of 5 mM, followed by serial dilution steps in 100% DMSO. Dilution factor and number of dilution steps may vary according to needs. Typically 8 different concentrations by 1:5 dilutions are prepared, a further intermediate dilutions of the substances is carried out with assay buffer resulting in 1% final DMSO concentration in the assay.
0.1 nM of FLAG-tagged Vanin-1 (AA 22-493, T26I, produced internally) and test compounds are incubated at room temperature for 20 minutes in assay buffer (1 mM DTT, 0.0025% Brij-35, 50 mM HEPES, pH7.5). D-Pantethine (Sigma, Cat #P2125-5G) in assay buffer is added (final concentration 3 μM) and incubated for additional 30 minutes at room temperature. Total assay volume typically is 40 μl but might be adjusted according to needs. Reaction is stopped by adding equal volume of stop solution as the reaction mixture to reach 100 nM HD-pantothenic acid (as an internal standard) and 1% TFA. Assay plates are centrifuged for 2 minutes and the formation of pantothenic acid is detected by RapidFire Mass Spectrometry (mobile phase A: 0.1% formic acid and 0.01% trifluoroacetic acid in water; mobile phase B: 47.5% acetonitrile, 47.5% methanol, 0.1% formic acid and 0.01% trifluoroacetic acid in water) using a C18, 12 μL cartridge (Agilent Cat #G9205A).
The values given in Table I result from measurements of one or more samples. In case of multiple measurements the geometric mean values are given.

Another assay relates to Pantetheinase (vanin). In words: Human Whole Blood assay (vanin activity by pantothenic acid formation). Format: cell-based. The note with it: pantethine substrate, 5 min reaction at room temperature, geometric mean in case of multiple measurements, read-out: HWB IC50. Here is the method:
Human Whole Blood assay: Pantetheinase (vanin) converts panteheine into pantothenic acid and cysteamine. Accordingly, in the described protocol vanin activity is quantified by formation of pantothenic acid after pantetheine supplementation via pantethine. The assay is applicable to identify vanin inhibitors. Compound stocks are dissolved in DMSO at 10 mM. Further dilutions are performed in RPMI 1640 medium (Gibco, #A-10491-01) and final concentrations in the assay are 0.032 nM-500 nM.
Human blood is drawn into a blood bag (1% heparin, 50 I.E./mL). Blood is aliquoted into cavities of 96-deep-well plates at 290 μL and mixed with 10 μL compound solution or vehicle (30 sec at 1400 rpm on a shaker). Equilibration follows at room temperature, 250 rpm and for 30 min. The assay is started by adding 10 μL of substrate solution (2 μM pantethine in 1 mM DTT, 0.0025% Brij-35, 50 mM HEPES, pH7.5) to each well, except for some blank wells which receive […] substrate buffer (1 mM DTT, 0.0025% Brij-35, 50 mM HEPES, pH7.5) only. Samples are thoroughly shaken (30 sec, 1400 rpm) and reaction is allowed to take place at room temperature, 250 rpm and for 5 min. The reaction is stopped by addition of a vanin tool inhibitor in excess (BI-1 total conc. 10 μM). Centrifugation of the plate follows at 4° C., 665 G for 10 min. Then the blood plasma samples (100 μL) are transferred into another 96-deep-well plate and proteins are precipitated (5 min on ice) by adding 100 μL of ice cold precipitation solution (1 μM labelled pantothenic acid (di-β-alanine-13C6,15N2 calcium salt, Sigma, #705837) in acetonitrile).
Afterwards the plate is centrifuged (4° C., 3220 G, 10 min) and supernatants (50 μL) are collected into another 96-deep-well plate and mixed (10 sec, 1400 rpm) with 150 μL ice cold formic acid (0.1%, Carl Roth GmbH+Co.KG, #CP03.1). The formation of pantothenic acid is detected by RapidFire Mass Spectrometry. A TripleQuad 6500+(ABSciex, Germany) is equipped with an LC-1290 system, a RapidFire autosampler (Agilent, Germany) and a C18 cartridge Type C 12 μL (Agilent Cat #G9526-80000). Mobile phase A is consisting of 0.09% formic acid and 0.01% trifluoroacetic acid in water and mobile phase B of 0.09% formic acid and 0.01% trifluoroacetic acid in acetonitrile/methanol/water=47.5/47.5/5.

By IC50 is commonly meant the concentration that gives 50% inhibition. As for `CC(=O)N(C)[C@H]1CCN(C(=O)c2ccc(N[C@@H](C)c3cnc4[nH]ccc4c3)nc2)C1` [Example 5.9], the half-inhibitory concentration (IC50) in assay [1] was found to be 0.18 nM; in the assay with Pantetheinase (vanin), 10.3 nM.
In the case of `CC(=O)N(C)[C@H]1CCN(C(=O)c2ccc(NC(C)c3cccc4[nH]ccc34)nc2)C1` (stereo partly shown) [Example 5.10], the figures for the IC50 (in assay [1]; with Pantetheinase (vanin)) were 0.18 nM and 1.41 nM, respectively.
`CC(=O)N(C)[C@H]1CCN(C(=O)c2ccc(NCc3cnc4ccccn34)nc2)C1` [Example 5.12]: the figures for the 50% inhibitory concentration (IC50) (in assay [1]; with Pantetheinase (vanin)) were 0.23 nM and 3.91 nM, respectively.
Consider `CC(=O)N(C)[C@H]1CCN(C(=O)c2ccc(NCc3ccnc4[nH]ccc34)nc2)C1` [Example 5.13], for which the half-inhibitory concentration (IC50) was determined as 0.28 nM in assay [1] and 1.71 nM in the assay with Pantetheinase (vanin).
For `CC(=O)N(C)[C@H]1CCN(C(=O)c2ccc(NCc3n[nH]c4ccccc34)nc2)C1` [Example 5.14] the same measures were 0.36 nM and 1.69 nM.
The corresponding values for `CC(=O)N(C)[C@H]1CCN(C(=O)c2ccc(N[C@@H](C)c3nc4cc(Cl)ccc4[nH]3)nc2)C1` [Example 5.15] are 0.6 nM and 7.52 nM.
For `CC(=O)N(C)[C@H]1CCN(C(=O)c2ccc(NCc3c[nH]c4ccccc34)nc2)C1` [Example 5.16], the IC50 in assay [1] amounted to 0.62 nM; with Pantetheinase (vanin) it was 4.39 nM.
The corresponding values for `CC(=O)N(C)[C@H]1CCN(C(=O)c2ccc(NCc3ncn4ccccc34)nc2)C1` [Example 5.19] are 0.75 nM and 3.69 nM.
The corresponding values for `CC(=O)N(C)[C@H]1CCN(C(=O)c2ccc(NCc3noc4c3CCCC4)nc2)C1` [Example 5.21] are 0.79 nM and 3.4 nM.
As for `CC(=O)N(C)[C@H]1CCN(C(=O)c2ccc(NCc3ccc4[nH]ncc4c3)nc2)C1` [Example 5.22], the figures for the IC50 (in assay [1]; with Pantetheinase (vanin)) were 0.82 nM and 3.35 nM, respectively.
For `CC(=O)N(C)[C@H]1CCN(C(=O)c2ccc(N[C@@H](C)c3nc4ccccc4[nH]3)nc2)C1` [Example 5.23], the half-inhibitory concentration (IC50) in assay [1] stood at 1.43 nM; with Pantetheinase (vanin), 4.1 nM.
As for `CC(=O)N(C)[C@H]1CCN(C(=O)c2ccc(NCc3cccc4ncccc34)nc2)C1` [Example 5.24], the results for the 50% inhibitory concentration (IC50) (in assay [1]; in the assay on Pantetheinase (vanin)) were 1.23 nM and 3.88 nM, respectively.
Regarding `CC(=O)N(C)[C@H]1CCN(C(=O)c2ccc(N[C@@H](C)c3ccc4nc[nH]c4c3)nc2)C1` [Example 5.36], the IC50 in assay [1] worked out at 0.22 nM; in the assay with Pantetheinase (vanin), 4.86 nM.
For `CC(=O)N(C)[C@H]1CCN(C(=O)c2ccc(N[C@@H](C)c3ccc4nn(C)cc4c3)nc2)C1` [Example 5.38] the same measures were 0.36 nM and 1.37 nM.
With `CN(C(=O)C1CC1)[C@H]1CCN(C(=O)c2ccc(NCc3csc4ccccc34)nc2)C1` [Example 5.39], the values for the concentration for half-maximal inhibition (IC50) (in assay [1]; in the assay with Pantetheinase (vanin)) were 0.29 nM and 26.2 nM, respectively.
For `CC(=O)N(C)[C@H]1CCN(C(=O)c2ccc(NCc3c(C)ccc4nc(C)[nH]c34)nc2)C1` [Example 5.40], the IC50 in assay [1] amounted to 0.54 nM; with Pantetheinase (vanin) it was 1.06 nM.
For `CC(=O)N(C)[C@H]1CCN(C(=O)c2ccc(N[C@@H](C)c3cccc4[nH]ncc34)nc2)C1` [Example 7.1, N-[(3S)-1-(6-{[(1S)-1-(1H-Indazol-4-yl)ethyl]amino}pyridine-3-carbonyl)pyrrolidin-3-yl]-N-methylacetamide] the same measures were 0.33 nM and 7.66 nM.
